Reference: US9296725B2, “Heterocyclyl pyrimidine analogues as TYK2 inhibitors” (Cellzome Limited, priority 2012, dated 2016)
Read-outs that look alike come from different tables or passages of the source.

Columns and labels:
JAK2 = target: T1, JAK2 (Homo sapiens, UniProt O60674); test: Kinobeads assay, JAK2 (competition binding in mixed Molt4/Ramos cell lysate, dot blot detection); conditions: read-out: JAK2 Band (Kinobeads assay potency, IC50)
T1 construct: endogenous in cells; host or cells: Molt4 (ATCC CRL-1582) and Ramos (ATCC CRL-1596), mixed lysate 1:2
In short: (§1)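 Competition binding: compound dilutions (1:3 series, 9 steps) plus immobilized aminopyrido-pyrimidine beads incubated 3 h in the cold with mixed Molt4/Ramos lysate (1:2) at 10 mg/mL protein. Bead-bound JAK2/TYK2 eluted and quantified by antibody dot blot with infrared detection; IC50 from dose-response curves.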

TYK2 = target: T2, TYK2 (Homo sapiens, UniProt P29597); test: Kinobeads assay, TYK2 (competition binding in mixed Molt4/Ramos cell lysate, dot blot detection)
T2 construct: endogenous in cells; host or cells: Molt4 (ATCC CRL-1582) and Ramos (ATCC CRL-1596), mixed lysate 1:2
In short: as §1

[1] = Kinobeads assay, Molt4/Ramos lysate, read-out: TYK2 Band (Kinobeads assay potency, IC50)

T1 sequence (O60674 whole entry): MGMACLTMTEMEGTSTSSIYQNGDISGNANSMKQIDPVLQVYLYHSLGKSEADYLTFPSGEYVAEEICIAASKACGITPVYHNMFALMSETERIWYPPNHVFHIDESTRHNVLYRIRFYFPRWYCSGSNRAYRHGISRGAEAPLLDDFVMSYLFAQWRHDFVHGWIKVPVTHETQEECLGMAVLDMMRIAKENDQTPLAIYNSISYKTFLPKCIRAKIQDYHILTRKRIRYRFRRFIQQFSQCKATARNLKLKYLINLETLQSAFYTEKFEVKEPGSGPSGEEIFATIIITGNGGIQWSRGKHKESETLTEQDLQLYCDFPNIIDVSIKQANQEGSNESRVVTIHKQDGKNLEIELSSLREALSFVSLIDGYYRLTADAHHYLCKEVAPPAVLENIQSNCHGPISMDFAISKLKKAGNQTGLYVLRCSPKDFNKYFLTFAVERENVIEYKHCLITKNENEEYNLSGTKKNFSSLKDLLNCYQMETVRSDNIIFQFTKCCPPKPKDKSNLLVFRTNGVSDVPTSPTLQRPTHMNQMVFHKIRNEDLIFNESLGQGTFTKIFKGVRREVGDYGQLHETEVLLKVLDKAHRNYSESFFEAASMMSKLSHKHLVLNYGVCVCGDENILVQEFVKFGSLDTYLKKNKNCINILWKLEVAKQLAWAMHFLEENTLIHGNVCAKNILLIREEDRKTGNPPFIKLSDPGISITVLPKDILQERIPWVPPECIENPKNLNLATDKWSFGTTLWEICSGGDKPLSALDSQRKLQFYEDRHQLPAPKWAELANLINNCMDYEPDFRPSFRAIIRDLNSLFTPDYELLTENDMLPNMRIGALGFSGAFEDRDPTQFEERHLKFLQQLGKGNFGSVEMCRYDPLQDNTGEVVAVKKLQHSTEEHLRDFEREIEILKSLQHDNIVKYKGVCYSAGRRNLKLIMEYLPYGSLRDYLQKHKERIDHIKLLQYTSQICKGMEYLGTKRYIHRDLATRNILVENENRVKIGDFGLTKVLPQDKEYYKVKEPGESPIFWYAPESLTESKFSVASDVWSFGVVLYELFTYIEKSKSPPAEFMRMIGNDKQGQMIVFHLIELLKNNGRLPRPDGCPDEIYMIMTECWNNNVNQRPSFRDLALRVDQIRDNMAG
T2 sequence (P29597 whole entry): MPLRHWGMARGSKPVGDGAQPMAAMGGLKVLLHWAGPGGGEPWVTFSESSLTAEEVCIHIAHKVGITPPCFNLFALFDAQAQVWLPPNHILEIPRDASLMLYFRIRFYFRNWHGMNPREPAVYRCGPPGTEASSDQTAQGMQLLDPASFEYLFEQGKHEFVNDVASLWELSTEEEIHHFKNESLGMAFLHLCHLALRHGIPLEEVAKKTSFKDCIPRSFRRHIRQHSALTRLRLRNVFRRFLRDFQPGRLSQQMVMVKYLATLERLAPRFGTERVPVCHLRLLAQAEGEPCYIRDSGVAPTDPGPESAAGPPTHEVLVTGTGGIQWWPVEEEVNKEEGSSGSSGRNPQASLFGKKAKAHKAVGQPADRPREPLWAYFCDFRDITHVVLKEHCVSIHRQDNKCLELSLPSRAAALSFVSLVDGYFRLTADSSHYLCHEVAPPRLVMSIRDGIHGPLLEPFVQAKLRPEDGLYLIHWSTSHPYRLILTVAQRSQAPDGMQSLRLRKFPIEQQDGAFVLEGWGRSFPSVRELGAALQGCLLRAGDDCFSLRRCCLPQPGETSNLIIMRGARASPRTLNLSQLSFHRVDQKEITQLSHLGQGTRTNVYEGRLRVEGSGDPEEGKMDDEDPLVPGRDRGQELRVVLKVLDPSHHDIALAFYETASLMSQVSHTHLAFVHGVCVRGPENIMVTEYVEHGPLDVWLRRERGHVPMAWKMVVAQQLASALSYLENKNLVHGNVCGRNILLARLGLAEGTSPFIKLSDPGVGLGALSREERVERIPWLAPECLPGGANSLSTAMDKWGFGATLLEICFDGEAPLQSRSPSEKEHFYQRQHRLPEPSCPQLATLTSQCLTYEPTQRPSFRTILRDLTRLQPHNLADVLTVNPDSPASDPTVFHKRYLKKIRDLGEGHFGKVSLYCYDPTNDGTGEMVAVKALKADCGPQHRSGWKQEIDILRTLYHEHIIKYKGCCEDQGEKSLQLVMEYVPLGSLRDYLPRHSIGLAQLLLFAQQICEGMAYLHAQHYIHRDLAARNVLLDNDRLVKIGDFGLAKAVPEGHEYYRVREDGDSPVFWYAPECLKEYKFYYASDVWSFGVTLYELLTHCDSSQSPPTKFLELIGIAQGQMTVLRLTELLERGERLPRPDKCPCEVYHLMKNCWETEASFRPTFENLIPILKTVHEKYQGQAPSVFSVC

Row | IC50 (JAK2) [µM] | IC50 (TYK2; [1]) [µM] | IC50 (TYK2; read-out: TYK2 IC50) [µM] | Compound
1 | 1 to 10 | 0.1 to 1 |  | COc1cccc(CNc2nc(Nc3cnn(CC(=O)N(C)C)c3)ncc2Cl)c1 [Example I-244]
2 | 0.1 to 1 | 0.01 to 0.1 |  | Cc1cnc(Nc2cnn(CCO)c2)nc1NCc1c(F)cc(F)cc1F [Example I-303]
3 | 0.1 to 1 | 0.01 to 0.1 |  | OCCn1cc(Nc2ncc(Cl)c(NCc3cc(Br)ccc3F)n2)cn1 [Example I-164]
4 | 1 to 10 | 0.01 to 0.1 |  | O=C(Cn1cc(Nc2nccc(NCc3c(F)cccc3Cl)n2)cn1)N[C@@H]1C[C@@H]1F [Example I-142]
5 | > 10 | 0.01 to 0.1 |  | O=C(Cn1cc(Nc2ncc(F)c(NCc3cccc(OC(F)F)c3)n2)cn1)NC1CC1 [Example I-46]
6 | 0.1 to 1 | 0.01 to 0.1 |  | OCCn1cc(Nc2ncc(Cl)c(NCc3ccccc3)n2)cn1 [Example I-192]
7 | 1 to 10 | 0.01 to 0.1 |  | CC(C)NC(=O)Cn1cc(Nc2nccc(NCc3c(F)cc(C#N)cc3F)n2)cn1 [Example I-1, 2-(4-((4-((4-cyano-2,6-difluorobenzyl)amino)pyrimidin-2-yl)amino)-1H-pyrazol-1-yl)-N-isopropylacetamide]
8 | 1 to 10 | 0.1 to 1 |  | Cn1ccnc1Cn1cc(Nc2ncc(Cl)c(NCc3ccccc3)n2)cn1 [Example I-248]
9 | 1 to 10 | ≤ 0.01 |  | CC(C)NC(=O)Cn1cc(Nc2ncc(F)c(NCc3c(F)ccc(F)c3F)n2)cn1 [Example I-455]
10 | 1 to 10 | ≤ 0.01 |  | O=C(Cn1cc(Nc2ncc(F)c(NCc3c(F)cc(F)cc3F)n2)cn1)N1CCOCC1 [Example I-26]
11 | 1 to 10 | 0.01 to 0.1 |  | CC(C)NC(=O)Cn1cc(Nc2ncc(Cl)c(NCc3cccc(OC(F)F)c3)n2)cn1 [Example I-391]
12 | 1 to 10 | 0.1 to 1 |  | NS(=O)(=O)c1cccc(CNc2nc(Nc3cnn(CCO)c3)ncc2Cl)c1 [Example I-199]
13 | 1 to 10 | 0.1 to 1 |  | C[C@H](C(N)=O)n1cc(Nc2ncc(Cl)c(NCc3ccccc3)n2)cn1 [Example I-290]
14 | 0.1 to 1 | ≤ 0.01 |  | COc1ccc(F)c(CNc2nc(Nc3cnn(CC(=O)N(C)C)c3)ncc2C)c1F [Example I-20]
15 | 1 to 10 | 0.1 to 1 |  | [2H]C([2H])(O)C([2H])([2H])n1cc(Nc2ncc(Cl)c(NCc3cccc(F)c3)n2)cn1 [Example I-232]
16 | 1 to 10 | ≤ 0.01 |  | O=C(Cn1cc(Nc2ncc(F)c(NCc3cccc(OC(F)F)c3)n2)cn1)N1CCOCC1 [Example I-44]
17 | 0.1 to 1 | 0.01 to 0.1 |  | OCCn1cc(Nc2ncc(Cl)c(NCc3cccc(F)c3F)n2)cn1 [Example I-180]
18 | 0.1 to 1 | ≤ 0.01 |  | Cc1cnc(Nc2cnn(CC(=O)N(C)C)c2)nc1NCc1c(F)ccc(F)c1F [Example I-422]
19 | 1 to 10 | 0.1 to 1 |  | N#CCOc1cccc(CNc2nc(Nc3cnn(CC(N)=O)c3)ncc2Cl)c1 [Example I-362]
20 | > 10 | 0.01 to 0.1 |  | O=C(Cn1cc(Nc2nccc(NCc3c(F)cc(F)cc3F)n2)cn1)NCC(F)(F)F [Example I-86]
21 | 0.1 to 1 | 0.1 to 1 |  | CNC(=O)Cn1cc(Nc2ncc(Cl)c(NCc3ccccc3F)n2)cn1 [Example I-211]
22 | 1 to 10 | 0.01 to 0.1 |  | Fc1cc(F)c(CNc2nc(Nc3cn[nH]c3)ncc2Cl)c(F)c1 [Example I-372]
23 | 0.1 to 1 | 0.01 to 0.1 |  | CNC(=O)Cn1cc(Nc2ncc(Cl)c(NCc3cc(C(F)(F)F)ccc3F)n2)cn1 [Example I-279]
24 | 0.1 to 1 | ≤ 0.01 |  | O=C(Cn1cc(Nc2ncc(Cl)c(NCc3c(F)ccc(F)c3F)n2)cn1)NC1CC1 [Example I-335]

Row | IC50 (JAK2) [µM] | IC50 (TYK2; [1]) [µM] | IC50 (TYK2; read-out: TYK2 IC50) [µM] | Compound
25 | 1 to 10 | 0.01 to 0.1 |  | NC(=O)Cn1cc(Nc2ncc(Cl)c(NCc3c(F)cccc3F)n2)cn1 [Example I-240]
26 | 0.1 to 1 | 1 to 10 |  | OCCn1cc(Nc2ncc(Cl)c(NCc3ccccn3)n2)cn1 [Example I-247]
27 | 1 to 10 | 0.1 to 1 |  | OCCn1cc(Nc2ncc(F)c(NCc3cccc(F)c3F)n2)cn1 [Example I-170]
28 | 0.1 to 1 | 0.01 to 0.1 |  | Fc1ccc(F)c(CNc2nc(Nc3cnn(CC(F)F)c3)ncc2Cl)c1F [Example I-336]
29 | 1 to 10 | 0.01 to 0.1 |  | COc1ccc(F)c(CNc2ccnc(Nc3cnn(CC(=O)N[C@H](C)CO)c3)n2)c1F [Example I-124]
30 | 0.1 to 1 | ≤ 0.01 |  | Cc1cnc(Nc2cnn(CC(=O)N(C)C)c2)nc1NCc1c(F)cccc1F [Example I-299]
31 | > 10 | 0.01 to 0.1 |  | C[C@H](CO)NC(=O)Cn1cc(Nc2nccc(NCc3c(F)cncc3F)n2)cn1 [Example I-147]
32 | 1 to 10 | 0.01 to 0.1 |  | Cn1cc(Nc2ncc(Cl)c(NCc3cccc(C#N)c3)n2)cn1 [Example I-159]
33 | 1 to 10 | 0.01 to 0.1 |  | C[C@H]1COCCN1C(=O)Cn1cc(Nc2nccc(NCc3c(F)cc(F)cc3F)n2)cn1 [Example I-52]
34 | 1 to 10 | 0.01 to 0.1 |  | NC(=O)Cn1cc(Nc2ncc(F)c(NCc3c(Cl)cccc3Cl)n2)cn1 [Example I-328]
35 | 1 to 10 | 0.01 to 0.1 | < 0.1 | COc1ccc(F)c(CNc2ccnc(Nc3cnn(CC(=O)NC(C)C)c3)n2)c1F [Example I-65]
36 | 1 to 10 | 0.01 to 0.1 |  | O=C(Cn1cc(Nc2nccc(NCc3c(F)cc(F)cc3F)n2)cn1)NCCO [Example I-89]
37 | 1 to 10 | 0.01 to 0.1 |  | COc1cc(F)c(CNc2nc(Nc3cnn(CC(N)=O)c3)ncc2C)c(F)c1 [Example I-315]
38 | 1 to 10 | 0.1 to 1 |  | N#CCNC(=O)c1cccc(CNc2nc(Nc3cnn(CCO)c3)ncc2Cl)c1 [Example I-242]
39 | 1 to 10 | 0.01 to 0.1 |  | CC(C)CNC(=O)Cn1cc(Nc2ncc(Cl)c(NCc3cccc(OC(F)F)c3)n2)cn1 [Example I-392]
40 | 1 to 10 | 0.01 to 0.1 |  | CCOc1ccc(F)c(CNc2nc(Nc3cnn(CC(=O)NC)c3)ncc2Cl)c1F [Example I-269]
41 | > 10 | 0.01 to 0.1 |  | CC(C)NC(=O)Cn1cc(Nc2ncc(Cl)c(NCc3c(F)cc(F)cc3F)n2)cn1 [Example I-393]
42 | > 10 | 0.01 to 0.1 |  | CC(C#N)NC(=O)Cn1cc(Nc2nccc(NCc3c(F)cc(F)cc3F)n2)cn1 (stereo not shown) [Example I-5, N-(1-cyanoethyl)-2-(4-((4-((2,4,6-trifluorobenzyl)amino)pyrimidin-2-yl)amino)-1H-pyrazol-1-yl)acetamide]
43 | 0.1 to 1 | 0.1 to 1 |  | Cn1cc(Nc2ncc(Cl)c(NCc3cncc(F)c3)n2)cn1 [Example I-258]
44 | 1 to 10 | 0.01 to 0.1 |  | NC(=O)Cn1cc(Nc2ncc(F)c(NCc3c(F)cccc3F)n2)cn1 [Example I-380]
45 | 0.1 to 1 | 0.1 to 1 |  | CS(=O)(=O)c1ccc(F)cc1CNc1nc(Nc2cn[nH]c2)ncc1F [Example I-486]
46 | 0.1 to 1 | 0.01 to 0.1 |  | COc1ccc(S(C)(=O)=O)cc1CNc1nc(Nc2cnn(CC(F)F)c2)ncc1C [Example I-107]
47 | 1 to 10 | ≤ 0.01 |  | C[C@@H](CO)NC(=O)Cn1cc(Nc2nccc(NCc3c(F)ccc(C#N)c3F)n2)cn1 [Example I-153]
48 | 1 to 10 | 0.01 to 0.1 |  | CC(O)Cn1cc(Nc2ncc(Cl)c(NCc3c(F)cccc3F)n2)cn1 (stereo not shown) [Example I-209]
